Measurements published in ChEMBL document CHEMBL1147807, “Identification of 2-acylaminothiophene-3-carboxamides as potent inhibitors of FLT3” (Bioorg Med Chem Lett, 2006).

What follows are molecules tested on MV4-11 (assay: Antiproliferative activity against human MV4-11 cells).

Structure (SMILES) | IC50
NC(=O)c1c(NC(=O)c2cccc(Cl)c2)sc2c1CCCC2 | 2.2 µM
Cc1ccc(C(=O)Nc2sc3c(c2C(N)=O)CCCC3)cc1C | 0.71 µM
COc1ccc(/C=C/C(=O)Nc2sc3c(c2C(N)=O)CCCC3)cc1 | 1.8 µM
COc1ccc(C(=O)Nc2sccc2C(N)=O)cc1OC | 2.4 µM
NC(=O)c1c(NC(=O)c2ccncc2)sc2c1CCCC2 | 2.1 µM
Cc1ccc(/C=C/C(=O)Nc2sc3c(c2C(N)=O)CCCC3)o1 | 10 µM
COc1ccc(C(=O)Nc2sc(C)c(C)c2C(N)=O)cc1OC | 0.33 µM
NC(=O)c1c(NC(=O)C2CC2)sc2c1CCCC2 | 1.2 µM
Cc1ccc(C(=O)Nc2sc3c(c2C(N)=O)CCCC3)cc1 | 0.45 µM
NC(=O)c1c(NC(=O)c2cccnc2)sc2c1CCCC2 | 2 µM
COc1ccc(CCC(=O)Nc2sc3c(c2C(N)=O)CCCC3)cc1 | > 10 µM
CC(C)c1ccc(/C=C/C(=O)Nc2sc3c(c2C(N)=O)CCCC3)cc1 | 2.7 µM
CC(=O)c1ccc(C(=O)Nc2sc3c(c2C(N)=O)CCCC3)cc1 | 1.8 µM
NC(=O)c1c(NC(=O)c2ccc(Cl)cc2)sc2c1CCCC2 | 1.4 µM
Cc1cccc(C(=O)Nc2sc3c(c2C(N)=O)CCCC3)c1 | 3.2 µM
NC(=O)c1c(NC(=O)c2ccco2)sc2c1CCCC2 | 1.5 µM
NC(=O)c1c(NC(=O)Cc2ccccc2)sc2c1CCCC2 | > 10 µM
NC(=O)c1c(NC(=O)/C=C/c2ccco2)sc2c1CCCC2 | 0.48 µM
NC(=O)c1c(NC(=O)c2ccccn2)sc2c1CCCC2 | 0.35 µM
CC(C)(C)c1ccc(C(=O)Nc2sc3c(c2C(N)=O)CCCC3)cc1 | 1.6 µM
COc1ccc(/C=C/C(=O)Nc2sc3c(c2C(N)=O)CCCC3)cc1OC | 2 µM
COc1ccc(C(=O)Nc2sc3c(c2C(N)=O)CCCC3)cc1 | 1.3 µM
NC(=O)c1c(NC(=O)c2ccccc2)sc2c1CCCC2 | > 10 µM
NC(=O)c1c(NC(=O)c2ccc(Br)cc2)sc2c1CCCC2 | 1.5 µM
COc1cccc(C(=O)Nc2sc3c(c2C(N)=O)CCCC3)c1 | 1.5 µM
NC(=O)c1c(NC(=O)CSc2ccccc2)sc2c1CCCC2 | 3.8 µM
NC(=O)c1c(NC(=O)/C=C/c2ccccc2)sc2c1CCCC2 | 0.53 µM
COc1ccc(C(=O)Nc2sc3c(c2C(N)=O)CCC3)cc1OC | 0.41 µM
COc1cc(OC)cc(C(=O)Nc2sc3c(c2C(N)=O)CCCC3)c1 | > 10 µM
NC(=O)c1c(NC(=O)c2ccc3c(c2)OCO3)sc2c1CCCC2 | 0.89 µM

Each molecule was assayed against T1, Receptor-type tyrosine-protein kinase FLT3 (Homo sapiens, UniProt P36888) (assay: Inhibition of FLT3).
T1 sequence (P36888 whole entry): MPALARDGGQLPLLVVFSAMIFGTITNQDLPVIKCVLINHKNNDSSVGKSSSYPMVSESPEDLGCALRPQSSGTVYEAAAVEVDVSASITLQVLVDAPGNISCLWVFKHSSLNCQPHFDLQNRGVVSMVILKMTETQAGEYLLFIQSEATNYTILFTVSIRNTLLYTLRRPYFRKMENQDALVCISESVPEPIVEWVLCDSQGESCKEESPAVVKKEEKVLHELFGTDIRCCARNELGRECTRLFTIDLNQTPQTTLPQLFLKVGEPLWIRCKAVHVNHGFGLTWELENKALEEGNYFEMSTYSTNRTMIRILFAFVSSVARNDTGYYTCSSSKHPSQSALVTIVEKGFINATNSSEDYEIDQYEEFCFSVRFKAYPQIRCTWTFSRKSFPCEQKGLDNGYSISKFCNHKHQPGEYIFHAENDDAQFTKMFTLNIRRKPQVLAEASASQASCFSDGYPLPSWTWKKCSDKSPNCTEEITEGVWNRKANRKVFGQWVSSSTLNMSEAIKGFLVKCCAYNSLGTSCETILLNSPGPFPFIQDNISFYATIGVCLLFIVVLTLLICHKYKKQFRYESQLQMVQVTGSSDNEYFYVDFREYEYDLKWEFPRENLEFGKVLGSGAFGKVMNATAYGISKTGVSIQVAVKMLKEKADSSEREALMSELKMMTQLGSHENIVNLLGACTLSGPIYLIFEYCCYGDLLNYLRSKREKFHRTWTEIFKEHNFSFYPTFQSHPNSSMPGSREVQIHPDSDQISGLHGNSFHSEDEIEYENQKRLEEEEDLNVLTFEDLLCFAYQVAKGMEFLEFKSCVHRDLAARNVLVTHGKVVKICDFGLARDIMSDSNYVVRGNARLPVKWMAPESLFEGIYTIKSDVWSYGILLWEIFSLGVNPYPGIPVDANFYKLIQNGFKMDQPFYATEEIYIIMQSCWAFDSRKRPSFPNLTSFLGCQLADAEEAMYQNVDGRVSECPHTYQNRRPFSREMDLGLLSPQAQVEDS

Structure (SMILES) | IC50
COc1ccc(/C=C/C(=O)Nc2sc3c(c2C(N)=O)CCCC3)cc1 | 0.25 µM
NC(=O)c1c(NC(=O)c2ccc(-c3ccccc3)cc2)sc2c1CCCC2 | > 10 µM
NC(=O)c1c(NC(=O)c2ccccc2Cl)sc2c1CCCC2 | > 10 µM
NC(=O)c1c(NC(=O)C2CCCCC2)sc2c1CCCC2 | > 10 µM
NC(=O)c1c(NC(=O)c2ccncc2)sc2c1CCCC2 | 0.11 µM
NC(=O)c1c(NC(=O)C2CC2)sc2c1CCCC2 | 1.3 µM
NC(=O)c1c(NC(=O)c2cccnc2)sc2c1CCCC2 | 1.1 µM
NC(=O)c1c(NC(=O)c2ccc(Oc3ccccc3)cc2)sc2c1CCCC2 | > 10 µM
COc1ccc(C(=O)Nc2sc3c(c2C(N)=O)CCCCCC3)cc1OC | > 100 µM
CC(=O)Nc1sc2c(c1C(N)=O)CCCC2 | 2 µM
CC(C)C(=O)Nc1sc2c(c1C(N)=O)CCCC2 | > 10 µM
NC(=O)c1c(NC(=O)c2ccccc2)sc2c1CCCC2 | 0.36 µM
COc1cc(C(=O)Nc2sc3c(c2C(N)=O)CCCC3)cc(OC)c1OC | > 10 µM
NC(=O)c1c(NC(=O)CSc2ccccc2)sc2c1CCCC2 | > 10 µM
COc1ccccc1C(=O)Nc1sc2c(c1C(N)=O)CCCC2 | > 10 µM
NC(=O)c1c(NC(=O)COc2ccccc2)sc2c1CCCC2 | > 10 µM
